The experiment has as its system NCYC361 and other strains. Conditions: for doubling time: YPD supplemented with 100 mg/L of iron sulfate vs YPD.

Where two headings read alike, the source gives them in different places.

Experimental: Shown are the average and standard deviation of the doubling times measured for each strain in YPD and in YPD supplemented with 100 mg/L of iron sulfate. […] Data represent three biological replicates.

In the case of `O.O.O.O.O.O.O.O=S(=O)([O-])[O-].[Fe+2]` [iron sulfate, iron (II) sulfate heptahydrate], the “growth with iron supplementation to YPD” value (NCYC361) was “partially alleviated the slow growth”. In addition, the doubling time result (NCYC361, p<0.0008) is “faster” and the doubling time result (any other strain) is listed as “not significantly different”.
